Where a name gives a salt, the structure may show the parent alone. Read-outs that look alike come from different tables or passages of the source.

Data set [1] can be described thus: Stability in buffer solution on storage (HPLC). Format: physicochemical. The following applies: about 0.1%, stored at 50°C for 476 hours; for Stability (100% = concentration before storage) pH: 8: 50 mM Tris-HCl; for Stability (100% = concentration before storage) pH: 5: 50 mM acetic acid-NaOH. As for the experimental part:
In the Examples and Test Examples, the analysis of an L-ascorbic acid 2-phosphate salt or an ion thereof was performed using an Ap-containing solution having a known concentration (prepared from L-ascorbic acid 2-phosphate magnesium salt) as a standard by an HPLC method using a Shodex IEC DEAE-825 resin (ammonium acetate 10 mM → 1M gradient, detected spectrophotometrically at 265 nm). The elemental analysis was performed by an ICP emission method, flame photometry and an ion chromatography method. Unless otherwise indicated, the reagents used herein were commercially available reagents.
The stability of L-ascorbic acid 2-phosphate zinc salt was compared to that of L-ascorbic acid 2-phosphate magnesium salt. Each salt was dissolved in a buffer solution (50 mM acetic acid-NaOH, pH: 5, or 50 mM Tris-HCl, pH: 8) to a concentration of about 0.1% and stored at 50°C for 476 hours. The concentrations of the L-ascorbic acid 2-phosphate before and after storage were analyzed by the HPLC method.

The next data set deals with B. subtilis (168 strain). In words: Antimicrobial effect, turbidity in NUTRIENT BROTH. Format: cell-based. The following applies: 0.1% salt, pH 6.8, about 10^7 cells/ml, 37°C for 24 hours. As for the experimental part: (§1) To NUTRIENT BROTH (produced by DIFCO), 0.1% of an L-ascorbic acid 2-phosphate salt was added thereto, and the pH was adjusted to 6.8 using hydrochloric acid or sodium hydroxide. Using 5 ml of the medium thus prepared, test bacterium were inoculated in a concentration of about 10^7 cells/ml and incubated in a test tube at 37°C for 24 hours. […] As a control, the same test was performed using a medium not containing an L-ascorbic acid 2-phosphate salt.

Another data set has as its system E. coli (K-12 strain). As to the kind of experiment: Antimicrobial effect, turbidity in NUTRIENT BROTH. Format: cell-based. The note with it: 0.1% salt, pH 6.8, about 10^7 cells/ml, 37°C for 24 hours. As for the experimental part: as §1
The conditions of data set [2]: cited from earlier work.
[3] abbreviates: background statement on known salts.

Consider `O=C1O[C@H]([C@@H](O)CO)C(O)=C1OP(=O)([O-])[O-].[Mg+2]` [L-ascorbic acid 2-phosphate magnesium salt], for which the “Stability (100% = concentration before storage) pH: 8” value in data set [1] (pH: 8) came to 95%. Further, in data set [1] (pH: 5), the “Stability (100% = concentration before storage) pH: 5” value amounted to 82%. Further, the “turbidity after incubation, B. subtilis (168 strain)” value (“turbidity … (168 strain)” below) in the data set with B. subtilis (168 strain) is given as “+”. In the data set with E. coli (K-12 strain), the “turbidity after incubation, E. coli (K-12 strain)” value (“turbidity … (K-12 strain)” below) is “+”. In addition, the “concentration of aqueous solution that can be formed (solubility in water)” value (“concentration … (solubility in water)” for short) in data set [2] (setting [3]) is reported as less than 30%.

For `O=C1O[C@H]([C@@H](O)CO)C(O)=C1OP(=O)([O-])[O-].[Zn+2]` [L-ascorbic acid 2-phosphate zinc salt], the remaining at 476 h in data set [1] (50 mm acetic acid-naoh, pH 5, 50 mM acetic acid-NaOH, pH: 5, read-out: Stability (100% = concentration before storage) pH: 5) stood at 91%; in data set [1] (50 mm tris-hcl, pH 8, 50 mM Tris-HCl, pH: 8, read-out: Stability (100% = concentration before storage) pH: 8) it was 93%. The “turbidity … (168 strain)” value in the data set on B. subtilis (168 strain) is “-”. Moreover, in the data set with E. coli (K-12 strain), the “turbidity … (K-12 strain)” value is on record as “-”. Besides, in “Solubility in water”, the solubility was no less than 500 mg/mL.

In the case of `O=C1O[C@H]([C@@H](O)CO)C(O)=C1OP(=O)([O-])[O-].[Zn+2]` [L-ascorbic acid 2-phosphate zinc salt (Example 2)], in data set [1] (pH: 8, 28560 min), the “Stability (100% = concentration before storage) pH: 8” value was 95%. For the same compound, the “Stability (100% = concentration before storage) pH: 5” value in data set [1] (pH: 5, 28560 min) is 92%.

Regarding `O=C1O[C@H]([C@@H](O)CO)C(O)=C1OP(=O)(O)O` [calcium salt], in data set [2] (setting [3]), the “concentration … (solubility in water)” value is on record as “scarcely dissolves in water”.

Regarding `O=C1O[C@H]([C@@H](O)CO)C(O)=C1OP(=O)([O-])[O-].[Na+].[Na+]`, in the data set on B. subtilis (168 strain), the “turbidity … (168 strain)” value was “+”. The “turbidity … (K-12 strain)” value with E. coli (K-12 strain) was “+”. The “concentration … (solubility in water)” value in data set [2] was “about 30%”.

One may read the solubility as how much of the substance goes into solution per volume. A low value points to a poorly soluble substance.

The values are drawn from EP0884321A1, “Ascorbic acid 2-phosphate zinc salt and process for manufacturing the same” (priority 1997, dated 1998).
